Source: patent US7884117B2, “Carbonylamino pyrrolopyrazoles, potent kinase inhibitors” (Pfizer Inc., priority 2005, dated 2011)

Assays:
[1] = biological target: T1, PAK4 Kinase domain (PAK4 KD) (Homo sapiens, UniProt O96013); assay: PAK4 kinase domain enzymatic assay (PK/LDH-coupled, Ki); type: biochemical; settings: PAK4 Kinase Domain
T1 construct: Cloning, expression, and purification of recombinant PAK4 Kinase domain (PAK4 KD); His tag (pET28a(+)/pET24a(+), Ni-NTA purification) (N, cleaved yes); GST (pGST4.5, glutathione column) (N, cleaved yes); made in house; host or cells: E. coli BL21(DE3)

[2] = biological target: T2, PAK4 kinase activity in whole cells (TR-293-KDG, modified HEK 293) (Homo sapiens, UniProt O96013); assay: PAK4 cellular assay: sandwich ELISA of PAK4-dependent phosphorylation of GEF-H1b in TR-293-KDG cells; type: cell-based; settings: 3-hour exposure
T2 construct: engineered to overexpress both GEF-H1b and the kinase domain (KD) of PAK4; expressed in transfected cells; host or cells: TR-293-KDG (modified HEK 293, Trex system, Invitrogen)
T2 sequence (O96013 321-572 limits assumed): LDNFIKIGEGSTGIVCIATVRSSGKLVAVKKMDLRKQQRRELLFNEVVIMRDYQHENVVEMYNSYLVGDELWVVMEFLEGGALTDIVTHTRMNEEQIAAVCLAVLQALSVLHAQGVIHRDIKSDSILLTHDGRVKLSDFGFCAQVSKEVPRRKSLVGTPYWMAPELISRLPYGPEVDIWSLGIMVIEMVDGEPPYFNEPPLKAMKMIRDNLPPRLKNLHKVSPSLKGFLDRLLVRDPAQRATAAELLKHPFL
Protocol: A sandwich ELISA method was used to measure the PAK4 kinase activity in whole cells. The level of PAK4-dependent phosphorylation of GEF-H1b can be determined by monitoring the binding of a phosphospecific antibody to GEF-H1b. […] The KD of PAK4 is inducible in this cell line by tetracycline (Trex system, Invitrogen). […] To establish a phosphorylation event on GEF-HL, cells are induced with doxycycline to express the PAK4 KD. […] Candidate substance effect is measured as the ability to block this phosphorylation event.
ELISA plate was prepared by pre-coating the plates with a capture antibody (α-HA-tag mouse monoclonal antibody), blocked with BSA, and washed in 0.1% tween 20 in tris-buffered saline (TBST). […] Cells were then lysed with a modified RIPA buffer supplemented with protease inhibitors. […] Between all subsequent steps plates were washed 4 times with TBST. Detection antibody (recognizing the phospho-specific eptitope on GEF-H1b) was added for 1 hour, followed by addition of an enzyme linked goat α-rabbit secondary antibody for 45 minutes. […] EC50 values were calculated by sigmoid curve fitting using a four-parameter analysis.

T1 sequence (O96013 321-572 limits assumed): as above

`CC(=O)Nc1n[nH]c2c1CN(C(=O)N[C@H](CN(C)C)c1ccccc1)C2(C)C` [Example 52, 3-(acetylamino)-N-[(1S)-2-(dimethylamino)-1-phenylethyl]-6,6-dimethyl-4,6-dihydropyrrolo[3,4-c]pyrazole-5(1H)-carboxamide] showed a Ki [1] of 354 nM and an EC50 [2] of 242 nM.

Compound `CC(C)C[C@@H](CN(C)C)OC(=O)N1Cc2c(NC(=O)C3CCC3)n[nH]c2C1(C)C` [Example 80, (S)-1-[(dimethylamino)methyl]-3-methylbutyl 3-[(cyclobutylcarbonyl)amino]-6,6-dimethyl-4,6-dihydropyrrolo[3,4-c]pyrazole-5(1H)-carboxylate] has a Ki [1] of 756 nM and an EC50 [2] of 12 nM.

Work on `CN(C)C[C@@H](NC(=O)N1Cc2c(NC(=O)[C@@H]3C[C@H]3c3ccccc3)n[nH]c2C1(C)C)c1ccccc1` [Example 56, N-[(1S)-2-(dimethylamino)-1-phenylethyl]-6,6-dimethyl-3-({[trans-2-phenylcyclopropyl]carbonyl}amino)-4,6-dihydropyrrolo[3,4-c]pyrazole-5(1H)-carboxamide] yielded a Ki [1] of 6.9 nM and an EC50 [2] of 37.1 nM.

Work on `CN(C)C[C@@H](OC(=O)N1Cc2c(NC(=O)c3ccc(F)cc3)n[nH]c2C1(C)C)c1ccccn1` [Example 25, (1R)-2-(dimethylamino)-1-pyridin-2-ylethyl 3-[(4-fluorobenzoyl)amino]-6,6-dimethyl-4,6-dihydropyrrolo[3,4-c]pyrazole-5(1H)-carboxylate] yielded a Ki [1] of 78.6 nM and an EC50 [2] of 153 nM.

With `CC1(C)c2[nH]nc(NC(=O)c3cccs3)c2CN1C(=O)N[C@H](CO)c1ccccc1` [Example 100, N-[(1S)-2-hydroxy-1-phenylethyl]-6,6-dimethyl-3-[(2-thienylcarbonyl)amino]-4,6-dihydropyrrolo[3,4-c]pyrazole-5(1H)-carboxamide] the Ki [1] was 108 nM and the EC50 [2] was 178 nM.

`CN(C)C[C@@H](OC(=O)N1Cc2c(NC(=O)C3CN(C)CCO3)n[nH]c2C1(C)C)c1ccccc1` (stereo partly drawn) [Example 17, (1S)-2-(dimethylamino)-1-phenylethyl 6,6-dimethyl-3-{[(4-methylmorpholin-2-yl)carbonyl]amino}-4,6-dihydropyrrolo[3,4-c]pyrazole-5(1H)-carboxylate] was tested, and the Ki [1] was 259 nM and the EC50 [2] was 110 nM.

`CC(C)C(=O)Nc1n[nH]c2c1CN(C(=O)O[C@H](CN(C)C)c1ccccc1)C2(C)C` [Example 8, (1S)-2-(dimethylamino)-1-phenylethyl 3-(isobutyrylamino)-6,6-dimethyl-4,6-dihydropyrrolo[3,4-c]pyrazole-5(1H)-carboxylate] was tested, and the Ki [1] was 124 nM and the EC50 [2] was 7.4 nM.

In the case of `CN(C)C[C@@H](OC(=O)N1Cc2c(NC(=O)c3ccccc3)n[nH]c2C1(C)C)C1CCCCC1` [Example 32, (1S)-1-cyclohexyl-2-(dimethylamino)ethyl 3-(benzoylamino)-6,6-dimethyl-4,6-dihydropyrrolo[3,4-c]pyrazole-5(1H)-carboxylate], the Ki [1] is reported as 57.1 nM and the EC50 [2] is reported as 162 nM.

With `CN(C)C[C@@H](OC(=O)N1Cc2c(NC(=O)c3ccno3)n[nH]c2C1(C)C)c1ccccc1` [Example 85, (S)-2-(dimethylamino)-1-phenylethyl 3-(isoxazole-5-carboxamido)-6,6-dimethylpyrrolo[3,4-c]pyrazole-5(1H,4H,6H)-carboxylate] the Ki [1] was 143 nM and the EC50 [2] was 4 nM.

Work on `CC(C)C[C@@H](CN(C)C)OC(=O)N1Cc2c(NC(=O)c3ccc(F)cc3)n[nH]c2C1(C)C` [Example 36, (1S)-1-[(dimethylamino)methyl]-3-methylbutyl 3-[(4-fluorobenzoyl)amino]-6,6-dimethyl-4,6-dihydropyrrolo[3,4-c]pyrazole-5(H)-carboxylate] yielded a Ki [1] of 103 nM and an EC50 [2] of 315 nM.

Compound `CC(C)C[C@@H](CN(C)C)OC(=O)N1Cc2c(NC(=O)c3ccccc3)n[nH]c2C1(C)C` [Example 35, (1S)-1-[(dimethylamino)methyl]-3-methylbutyl 3-(benzoylamino)-6,6-dimethyl-4,6-dihydropyrrolo[3,4-c]pyrazole-5(1H)-carboxylate] has a Ki [1] of 92.3 nM and an EC50 [2] of 216 nM.

`CN(C)C[C@@H](OC(=O)N1Cc2c(NC(=O)C3CCCCO3)n[nH]c2C1(C)C)c1ccccc1` (stereo partly drawn) [Example 16, (1S)-2-(dimethylamino)-1-phenylethyl 6,6-dimethyl-3-[(tetrahydro-2H-pyran-2-ylcarbonyl)amino]-4,6-dihydropyrrolo[3,4-c]pyrazole-5(1H)-carboxylate] was tested, and the Ki [1] was 118 nM and the EC50 [2] was 17.9 nM.

For `CN(C)CC(OC(=O)N1Cc2c(NC(=O)c3ccc(F)cc3)n[nH]c2C1(C)C)c1nccs1` (stereo not shown) [Example 93, 2-(dimethylamino)-1-(thiazol-2-yl)ethyl 3-(4-fluorobenzamido)-6,6-dimethylpyrrolo[3,4-c] pyrazole-5(1H,4H,6H)-carboxylate], the Ki [1] was 335 nM and the EC50 [2] was 178 nM.

For `CN(C)C[C@@H](OC(=O)N1Cc2c(NC(=O)c3cscn3)n[nH]c2C1(C)C)c1ccccc1` [Example 68, (1S)-2-(dimethylamino)-1-phenylethyl 6,6-dimethyl-3-[(1,3-thiazol-4-ylcarbonyl)amino]-4,6-dihydropyrrolo[3,4-c]pyrazole-5(1H)-carboxylate], the Ki [1] was 48.2 nM and the EC50 [2] was 34.1 nM.

`COc1ccc(CC(=O)Nc2n[nH]c3c2CN(C(=O)O[C@H](CN(C)C)c2ccccc2)C3(C)C)cc1` [Example 19, (1S)-2-(dimethylamino)-1-phenylethyl 3-{[(4-methoxyphenyl)acetyl]amino}-6,6-dimethyl-4,6-dihydropyrrolo [3,4-c]pyrazole-5(1H)-carboxylate] was tested, and the Ki [1] was 7.87 nM and the EC50 [2] was 67.8 nM.

For `CN(C)CC(OC(=O)N1Cc2c(NC(=O)c3ccc(F)cc3)n[nH]c2C1(C)C)c1ccc(C#N)cc1` (stereo not shown) [Example 95, 1-(4-cyanophenyl)-2-(dimethylamino)ethyl 3-(4-fluorobenzamido)-6,6-dimethylpyrrolo[3,4-c] pyrazole-5(1H,4H,6H)-carboxylate], the Ki [1] was 137 nM and the EC50 [2] was 127 nM.

For `CO[C@H](C)C(=O)Nc1n[nH]c2c1CN(C(=O)O[C@H](CN(C)C)c1ccccc1)C2(C)C` [Example 117, (S)-2-(dimethylamino)-1-phenylethyl 3-((R)-2-methoxypropanamido)-6,6-dimethylpyrrolo[3,4-c]pyrazole-5(1H,4H,6H)-carboxylate], the Ki [1] was 357 nM and the EC50 [2] was 8.8 nM.

`CN(C)C[C@@H](NC(=O)N1Cc2c(NC(=O)c3ccccc3)n[nH]c2C1(C)C)c1ccccc1` [Example 46, 3-(benzoylamino)-N-[(1S)-2-(dimethylamino)-1-phenylethyl]-6,6-dimethyl-4,6-dihydro pyrrolo[3,4-c]pyrazole-5(1H)-carboxamide] showed a Ki [1] of 33.6 nM and an EC50 [2] of 32.1 nM.

Compound `CN(C)CC(OC(=O)N1Cc2c(n[nH]c2NC(=O)C2CCCO2)C1(C)C)c1cccc(F)c1` (single isomer, unassigned) [Example 83B] has a Ki [1] of 36.2 nM and an EC50 [2] of 5 nM.

`CN(C)C[C@@H](NC(=O)N1Cc2c(NC(=O)c3ccc(F)cc3)n[nH]c2C1(C)C)c1ccccc1` [Example 47, N-[(1S)-2-(dimethylamino)-1-phenylethyl]-3-[(4-fluorobenzoyl)amino]-6,6-dimethyl-4,6-dihydropyrrolo[3,4-c]pyrazole-5(1H)-carboxamide] gave a Ki [1] of 54.2 nM and an EC50 [2] of 34.7 nM.
